{
  "source": "patent US20250009844A1",
  "about": "“MATURATION OF MUCOSAL DEFENSE AND GUT/LUNG FUNCTION IN THE PRETERM INFANT” (Novozymes A/S, priority 2017, published 2025)",
  "tested_on": "bacteria localization at the surface of the intestinal mucosa",
  "assay": "Localization of bacteria by FISH with mucin immunostaining, lysis zone (Example 14)",
  "assay_type": "in vivo",
  "details": "orally administered; compared with mice on a low fat or western diet",
  "protocol": "Immunostaining of mucins and localization of bacteria by FISH Mucus immunostaining was paired with fluorescent in situ hybridization (FISH), as previously described in order to analyze bacteria localization at the surface of the intestinal mucosa. Briefly, colonic tissues (proximal colon, 2nd cm from the cecum) without fecal material were placed in methanol-Carnoy's fixative solution (60% methanol, 30% chloroform, 10% glacial acetic acid) for a minimum of 3 hours at room temperature. Tissues were then washed in methanol 2×30 min, ethanol 2×15 min, ethanol/xylene (1:1), 15 min and xylene 2×15 min, followed by embedding in Paraffin with a vertical orientation. Five μm sections were performed and dewax by preheating at 60° C. for 10 min, followed by xylene 60° C. for 10 min, xylene for 10 min and 99.5% ethanol for 10 minutes. Hybridization step was performed at 50° C. overnight with EUB338 probe (5′-GCTGCCTCCCGTAGGAGT-3′, with a 5′ labeling using Alexa 647) diluted to a final concentration of 10 μg/mL in hybridization buffer (20 mM Tris-HCl, pH 7.4, 0.9 M NaCl, 0.1% SDS, 20% formamide). After washing 10 min in wash buffer (20 mM Tris-HCl, pH 7.4, 0.9 M NaCl) and 3×10 min in PBS, PAP pen (Sigma-Aldrich) was used to mark around the section and block solution (5% fetal bovine serum in PBS) was added for 30 min at 4° C. […]",
  "note": "No end group written: not given here.",
  "data": [
    {"substance": "human beta defensin 2 (GIGDPVTCLKSGAICHPVFCPRRYKQIGTCGLPGTKCCKKP; ends and bridges not checked; cysteine pairing not given here; listed as Homo sapiens) [hBD-2]", "values": [
      {"measurement": "Distance from the intestinal lining to bacterial population (lysis zone)", "value": "profound effect on the distance"}
    ]}
  ]
}
